Measured values reported in PubChem BioAssay AID272 (DTP/NCI, 2004).
“And” between values parts separate entries of the source, which are not always exact repeats. Equal values may be shown once. Inconclusive results are not listed.

Tested on: Lewis lung carcinoma i.m., BDF1 mice, T/C %
Assay: NCI In Vivo Anticancer Drug Screen. Data for tumor model Lewis Lung Carcinoma (intramuscular) in B6D2F1 (BDF1) mice
Outline: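 Transplantable tumour model; readout survival or tumour size; value = treated (T) / vehicle control (C).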

[1] = endpoint: mean tumor weight (est.), dose: 100.0 mg/kg/injection, schedule: Q01DX011 (ip), vehicle: saline, higher = larger tumour
[2] = endpoint: median survival time, dose: 100.0 mg/kg/injection, schedule: Q01DX011 (ip), vehicle: saline, higher = longer survival
[3] = endpoint: median survival time, dose: 25.0 mg/kg/injection, schedule: Q01DX011 (ip), vehicle: saline, higher = longer survival

ClC1(c2ccccc2)c2ccc(Br)cc2-c2cc(Br)ccc21
T/C [1]: 53 % of control
T/C (endpoint: mean tumor weight (est.), dose: 200.0 mg/kg/injection, schedule: Q01DX011 (ip), vehicle: saline, higher = larger tumour): 40 % of control
T/C [2]: 88 % of control
T/C (endpoint: median survival time, dose: 200.0 mg/kg/injection, schedule: Q01DX011 (ip), vehicle: saline, higher = longer survival): 88 % of control

Clc1ccc2nc(CBr)cnc2c1
T/C (endpoint: mean tumor weight (est.), dose: 6.25 mg/kg/injection, schedule: Q01DX011 (ip), vehicle: saline with Tween-80, higher = larger tumour): 64 % of control
T/C (endpoint: mean tumor weight (est.), dose: 12.5 mg/kg/injection, schedule: Q01DX011 (ip), vehicle: saline with Tween-80, higher = larger tumour): 77 % of control
T/C (endpoint: mean tumor weight (est.), dose: 25.0 mg/kg/injection, schedule: Q01DX011 (ip), vehicle: saline with Tween-80, higher = larger tumour): 81 % of control
T/C (endpoint: median survival time, dose: 6.25 mg/kg/injection, schedule: Q01DX011 (ip), vehicle: saline with Tween-80, higher = longer survival): 105 % of control
T/C (endpoint: median survival time, dose: 12.5 mg/kg/injection, schedule: Q01DX011 (ip), vehicle: saline with Tween-80, higher = longer survival): 105 % of control
T/C (endpoint: median survival time, dose: 25.0 mg/kg/injection, schedule: Q01DX011 (ip), vehicle: saline with Tween-80, higher = longer survival): 103 % of control

N=C(N)SCc1c2ccccc2c(CSC(=N)N)c2ccccc12
T/C (endpoint: mean tumor weight, dose: 12.5 mg/kg/injection, schedule: Q01DX011 (ip), vehicle: saline, higher = larger tumour): 94 % of control
T/C (endpoint: mean tumor weight, dose: 25.0 mg/kg/injection, schedule: Q01DX011 (ip), vehicle: saline, higher = larger tumour): 84 % of control
T/C (endpoint: mean tumor weight, dose: 50.0 mg/kg/injection, schedule: Q01DX011 (ip), vehicle: saline, higher = larger tumour): 52 % of control
T/C (endpoint: median survival time, dose: 12.5 mg/kg/injection, schedule: Q01DX011 (ip), vehicle: saline, higher = longer survival): 110 % of control
T/C [3]: 104 % of control

OC(C1CO1)C(O)C1CO1 (centres undefined)
T/C (endpoint: median survival time, dose: 1.0 mg/kg/injection, schedule: Q01DX011 (ip), vehicle: saline, higher = longer survival): 110 % of control
T/C (endpoint: median survival time, dose: 2.0 mg/kg/injection, schedule: Q01DX011 (ip), vehicle: saline, higher = longer survival): 108 % of control
T/C (endpoint: median survival time, dose: 3.0 mg/kg/injection, schedule: Q01DX011 (ip), vehicle: saline, higher = longer survival): 114 % of control

[N-]=[N+]=CC(=O)CCC(N)C(=O)O (centres undefined)
T/C (endpoint: mean tumor weight, dose: 7.5 micrograms/kg/injection, schedule: Q01DX011 (ip), vehicle: saline, higher = larger tumour): 107 % of control
T/C (endpoint: mean tumor weight, dose: 15.0 micrograms/kg/injection, schedule: Q01DX011 (ip), vehicle: saline, higher = larger tumour): 77 % of control
T/C (endpoint: mean tumor weight, dose: 30.0 micrograms/kg/injection, schedule: Q01DX011 (ip), vehicle: saline, higher = larger tumour): 75 % of control
T/C (endpoint: mean tumor weight, dose: 60.0 micrograms/kg/injection, schedule: Q01DX011 (ip), vehicle: saline, higher = larger tumour): 102 % of control
T/C (endpoint: median survival time, dose: 7.5 micrograms/kg/injection, schedule: Q01DX011 (ip), vehicle: saline, higher = longer survival): 114 % of control
T/C (endpoint: median survival time, dose: 30.0 micrograms/kg/injection, schedule: Q01DX011 (ip), vehicle: saline, higher = longer survival): 90 % of control
T/C (endpoint: median survival time, dose: 60.0 micrograms/kg/injection, schedule: Q01DX011 (ip), vehicle: saline, higher = longer survival): 90 % of control

CN(C)/N=N/c1nc[nH]c1C(N)=O
T/C (endpoint: mean tumor weight, dose: 50.0 mg/kg/injection, schedule: Q01DX011 (ip), vehicle: steriod suspending solution, higher = larger tumour): 63 % of control
T/C (endpoint: mean tumor weight, dose: 100.0 mg/kg/injection, schedule: Q01DX011 (ip), vehicle: steriod suspending solution, higher = larger tumour): 62 % of control
T/C (endpoint: mean tumor weight, dose: 200.0 mg/kg/injection, schedule: Q01DX011 (ip), vehicle: steriod suspending solution, higher = larger tumour): 44 % of control
T/C (endpoint: median survival time, dose: 23.0 mg/kg/injection, schedule: Q01DX011 (ip), vehicle: Klucel (hydroxypropylcellulose) (HPC), higher = longer survival): 112 % of control and 115 % of control
T/C (endpoint: median survival time, dose: 25.0 mg/kg/injection, schedule: Q01DX009 (ip), vehicle: Klucel (hydroxypropylcellulose) (HPC), higher = longer survival): 101 % of control
T/C (endpoint: median survival time, dose: 39.0 mg/kg/injection, schedule: Q01DX010 (ip), vehicle: Klucel (hydroxypropylcellulose) (HPC), higher = longer survival): 102 % of control and 104 % of control
T/C (endpoint: median survival time, dose: 39.0 mg/kg/injection, schedule: Q01DX011 (ip), vehicle: Klucel (hydroxypropylcellulose) (HPC), higher = longer survival): 108 % of control and 116 % of control
T/C (endpoint: median survival time, dose: 50.0 mg/kg/injection, schedule: Q01DX009 (ip), vehicle: Klucel (hydroxypropylcellulose) (HPC), higher = longer survival): 120 % of control
T/C (endpoint: median survival time, dose: 50.0 mg/kg/injection, schedule: Q01DX011 (ip), vehicle: steriod suspending solution, higher = longer survival): 105 % of control
T/C (endpoint: median survival time, dose: 65.0 mg/kg/injection, schedule: Q01DX010 (ip), vehicle: Klucel (hydroxypropylcellulose) (HPC), higher = longer survival): 112 % of control and 117 % of control
T/C (endpoint: median survival time, dose: 65.0 mg/kg/injection, schedule: Q01DX011 (ip), vehicle: Klucel (hydroxypropylcellulose) (HPC), higher = longer survival): 88 % of control and 93 % of control
T/C (endpoint: median survival time, dose: 100.0 mg/kg/injection, schedule: Q01DX009 (ip), vehicle: Klucel (hydroxypropylcellulose) (HPC), higher = longer survival): 123 % of control
T/C (endpoint: median survival time, dose: 100.0 mg/kg/injection, schedule: Q01DX011 (ip), vehicle: steriod suspending solution, higher = longer survival): 97 % of control
T/C (endpoint: median survival time, dose: 108.0 mg/kg/injection, schedule: Q01DX010 (ip), vehicle: Klucel (hydroxypropylcellulose) (HPC), higher = longer survival): 88 % of control and 93 % of control
T/C (endpoint: median survival time, dose: 108.0 mg/kg/injection, schedule: Q01DX011 (ip), vehicle: Klucel (hydroxypropylcellulose) (HPC), higher = longer survival): 75 % of control
T/C (endpoint: median survival time, dose: 180.0 mg/kg/injection, schedule: Q01DX010 (ip), vehicle: Klucel (hydroxypropylcellulose) (HPC), higher = longer survival): 79 % of control
T/C (endpoint: median survival time, dose: 180.0 mg/kg/injection, schedule: Q01DX011 (ip), vehicle: Klucel (hydroxypropylcellulose) (HPC), higher = longer survival): 63 % of control
T/C (endpoint: median survival time, dose: 200.0 mg/kg/injection, schedule: Q01DX011 (ip), vehicle: steriod suspending solution, higher = longer survival): 97 % of control
T/C (endpoint: median survival time, dose: 300.0 mg/kg/injection, schedule: Q01DX010 (ip), vehicle: Klucel (hydroxypropylcellulose) (HPC), higher = longer survival): 58 % of control
T/C (endpoint: median survival time, dose: 300.0 mg/kg/injection, schedule: Q01DX011 (ip), vehicle: Klucel (hydroxypropylcellulose) (HPC), higher = longer survival): 55 % of control
T/C (endpoint: median survival time, dose: 500.0 mg/kg/injection, schedule: Q01DX010 (ip), vehicle: Klucel (hydroxypropylcellulose) (HPC), higher = longer survival): 57 % of control
T/C (endpoint: median survival time, dose: 500.0 mg/kg/injection, schedule: Q01DX011 (ip), vehicle: Klucel (hydroxypropylcellulose) (HPC), higher = longer survival): 51 % of control

CCN1/C(=C/C=C/c2oc3ccccc3[n+]2CC)Oc2ccccc21
T/C (endpoint: mean tumor weight (est.), dose: 3.7 micrograms/kg/injection, schedule: Q01DX011 (ip), vehicle: saline, higher = larger tumour): 87 % of control
T/C (endpoint: mean tumor weight (est.), dose: 75.0 micrograms/kg/injection, schedule: Q01DX011 (ip), vehicle: saline, higher = larger tumour): 99 % of control
T/C (endpoint: mean tumor weight (est.), dose: 150.0 micrograms/kg/injection, schedule: Q01DX011 (ip), vehicle: saline, higher = larger tumour): 103 % of control
T/C (endpoint: mean tumor weight (est.), dose: 300.0 micrograms/kg/injection, schedule: Q01DX011 (ip), vehicle: saline, higher = larger tumour): 86 % of control
T/C (endpoint: median survival time, dose: 37.5 micrograms/kg/injection, schedule: Q01DX011 (ip), vehicle: saline, higher = longer survival): 93 % of control
T/C (endpoint: median survival time, dose: 300.0 micrograms/kg/injection, schedule: Q01DX011 (ip), vehicle: saline, higher = longer survival): 87 % of control

OCC1OC(n2cnc3c(Cl)ncnc32)C(O)C1O (centres undefined)
T/C (endpoint: mean tumor weight (est.), dose: 25.0 mg/kg/injection, schedule: Q01DX011 (ip), vehicle: saline, higher = larger tumour): 121 % of control
T/C (endpoint: mean tumor weight (est.), dose: 50.0 mg/kg/injection, schedule: Q01DX011 (ip), vehicle: saline, higher = larger tumour): 91 % of control
T/C [1]: 117 % of control
T/C (endpoint: mean tumor weight (est.), dose: 400.0 mg/kg/injection, schedule: Q01DX011 (ip), vehicle: saline, higher = larger tumour): 94 % of control
T/C (endpoint: mean tumor weight, dose: 25.0 mg/kg/injection, schedule: Q01DX011 (ip), vehicle: Klucel (hydroxypropylcellulose) (HPC), higher = larger tumour): 44 % of control
T/C (endpoint: mean tumor weight, dose: 200.0 mg/kg/injection, schedule: Q01DX011 (ip), vehicle: Klucel (hydroxypropylcellulose) (HPC), higher = larger tumour): 88 % of control
T/C [3]: 100 % of control
T/C (endpoint: median survival time, dose: 25.0 mg/kg/injection, schedule: Q01DX012 (ip), vehicle: Klucel (hydroxypropylcellulose) (HPC), higher = longer survival): 95 % of control
T/C [2]: 98 % of control
T/C (endpoint: median survival time, dose: 200.0 mg/kg/injection, schedule: Q01DX012 (ip), vehicle: Klucel (hydroxypropylcellulose) (HPC), higher = longer survival): 104 % of control
T/C (endpoint: median survival time, dose: 400.0 mg/kg/injection, schedule: Q01DX011 (ip), vehicle: saline, higher = longer survival): 92 % of control

CCOC(=O)c1nc(C)[nH]c(=O)c1C
T/C (endpoint: median survival time, dose: 4.0 mg/kg/injection, schedule: Q01DX009 (ip), vehicle: water, higher = longer survival): 94 % of control
T/C (endpoint: median survival time, dose: 8.0 mg/kg/injection, schedule: Q01DX009 (ip), vehicle: water, higher = longer survival): 109 % of control
T/C (endpoint: median survival time, dose: 16.0 mg/kg/injection, schedule: Q01DX009 (ip), vehicle: water, higher = longer survival): 104 % of control
T/C (endpoint: median survival time, dose: 64.0 mg/kg/injection, schedule: Q01DX009 (ip), vehicle: water, higher = longer survival): 100 % of control

CCN(CC)Cc1cc(Nc2c3ccccc3nc3cc(Cl)ccc23)ccc1O
T/C (endpoint: mean tumor weight (est.), dose: 35.0 mg/kg/injection, schedule: Q01DX011 (ip), vehicle: saline, higher = larger tumour): 79 % of control
